Values after ≈ are worked out from the molar mass of the structure shown.
Key:
Format in all cases: functional
Bacillus subtilis = experiment: Antimicrobial activity against Bacillus subtilis after 24 hrs by well-diffusion assay
Proteus mirabilis = experiment: Antimicrobial activity against Proteus mirabilis after 24 hrs by well-diffusion assay
Escherichia coli [1] = experiment: Antimicrobial activity against Escherichia coli after 24 hrs by well-diffusion assay
Pseudomonas aeruginosa = experiment: Antimicrobial activity against Pseudomonas aeruginosa after 24 hrs by well-diffusion assay
Klebsiella pneumoniae = experiment: Antimicrobial activity against Klebsiella pneumoniae after 24 hrs by well-diffusion assay
Streptococcus sp. = experiment: Antimicrobial activity against Streptococcus spp. after 24 hrs by well-diffusion assay
Staphylococcus aureus [2] = experiment: Antimicrobial activity against Staphylococcus aureus after 24 hrs by well-diffusion assay
Escherichia coli [3] = experiment: Antimicrobial activity against Escherichia coli after 24 hrs by microbroth dilution assay
Staphylococcus aureus [4] = experiment: Antimicrobial activity against Staphylococcus aureus after 24 hrs by microbroth dilution assay

SMILES | inhibition zone (IZ) (Bacillus subtilis) [mm] | inhibition zone (IZ) (Proteus mirabilis) [mm] | inhibition zone (IZ) (Escherichia coli [1]) [mm] | inhibition zone (IZ) (Pseudomonas aeruginosa) [mm] | inhibition zone (IZ) (Klebsiella pneumoniae) [mm] | inhibition zone (IZ) (Streptococcus sp.) [mm] | inhibition zone (IZ) (Staphylococcus aureus [2]) [mm] | MIC (Escherichia coli [3]) [µg/mL] | MIC (Staphylococcus aureus [4]) [µg/mL]
c1ccc(CSc2nnnn2-c2ccccc2)cc1 | 0 | 0 | 0 | 0 | 0 | 0 | 0 |  | 
CC(=O)OCn1nnn(-c2ccccc2)c1=O | 14 | 11 | 0 | 0 | 0 | 10 | 9 | 13.9 (≈ 59.3 µM) | 2.66 (≈ 11.4 µM)
CC(=O)OCCn1nnn(-c2ccccc2)c1=O | 9 | 15 | 12 | 0 | 0 | 0 | 0 | 37 (≈ 149 µM) | 37 (≈ 149 µM)
OCn1nnn(-c2ccccc2)c1=S | 30 | 26 | 31 | 23 | 19 | 42 | 32 | 0.58 (≈ 2.79 µM) | 1.76 (≈ 8.45 µM)
O=C(O)CCC(=O)OCn1nnn(-c2ccccc2)c1=S | 12 | 11 | 11 | 17 | 16 | 19 | 24 | 1.37 (≈ 4.44 µM) | 1.37 (≈ 4.44 µM)
O=c1n(CCO)nnn1-c1ccccc1 | 12 | 12 | 11 | 0 | 13 | 0 | 0 | 8 (≈ 38.8 µM) | 5.29 (≈ 25.7 µM)
c1ccc(-n2nnnc2SCCCCCCSc2nnnn2-c2ccccc2)cc1 | 0 | 0 | 0 | 0 | 0 | 0 | 0 |  | 
CCOC(=O)CSc1nnnn1-c1ccccc1 | 13 | 14 | 0 | 0 | 0 | 13 | 9 | 15.9 (≈ 60 µM) | 5.29 (≈ 20 µM)
CC(=O)OCn1nnn(-c2ccccc2)c1=S | 12 | 15 | 0 | 0 | 0 | 0 | 10 | 13.9 (≈ 55.5 µM) | 4.62 (≈ 18.5 µM)
O=c1n(CCCCCCn2nnn(-c3ccccc3)c2=O)nnn1-c1ccccc1 | 0 | 0 | 0 | 0 | 0 | 0 | 0 |  | 
O=c1n(CCOCc2ccccc2)nnn1-c1ccccc1 | 0 | 20 | 0 | 0 | 0 | 0 | 0 |  | 
O=c1n(Cc2ccccc2)nnn1-c1ccccc1 | 0 | 7 | 0 | 0 | 0 | 0 | 0 |  | 
O=c1[nH]nnn1-c1ccccc1 | 14 | 0 | 10 | 0 | 9 | 11 | 12 | 1.54 (≈ 9.52 µM) | 1.54 (≈ 9.52 µM)
Sc1nnnn1-c1ccccc1 | 16 | 19 | 14 | 11 | 8 | 12 | 18 | 1.77 (≈ 9.91 µM) | 1.76 (≈ 9.9 µM)
O=c1n(CO)nnn1-c1ccccc1 | 33 | 34 | 30 | 24 | 22 | 42 | 38 | 1.76 (≈ 9.16 µM) | 0.19 (≈ 0.989 µM)

— ChEMBL document CHEMBL3608208, “Synthesis, antibacterial and QSAR evaluation of 5-oxo and 5-thio derivatives of 1,4-disubstituted tetrazoles” (2015)
